This passage reports Ki results from publication PMC6019688 (Redox Biology, 2018).

This assay addresses mitochondrial respiratory chain complex I (Homo sapiens, UniProt O75251+O75306+P03886). Kind of assay: spectrophotometric NADH:decylubiquinone oxidation in DU145 homogenate. The assay is classed as cell-based.

Chain of mitochondrial respiratory chain complex I (P03886 whole entry): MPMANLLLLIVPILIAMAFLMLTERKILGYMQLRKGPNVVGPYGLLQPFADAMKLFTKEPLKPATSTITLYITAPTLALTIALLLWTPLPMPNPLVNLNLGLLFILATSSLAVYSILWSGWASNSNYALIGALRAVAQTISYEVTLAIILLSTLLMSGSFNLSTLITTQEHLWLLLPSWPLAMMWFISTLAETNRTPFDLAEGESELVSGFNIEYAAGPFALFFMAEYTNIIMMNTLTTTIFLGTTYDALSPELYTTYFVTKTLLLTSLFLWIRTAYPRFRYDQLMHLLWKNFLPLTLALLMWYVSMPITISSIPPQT
Chain of mitochondrial respiratory chain complex I (O75306 34-463): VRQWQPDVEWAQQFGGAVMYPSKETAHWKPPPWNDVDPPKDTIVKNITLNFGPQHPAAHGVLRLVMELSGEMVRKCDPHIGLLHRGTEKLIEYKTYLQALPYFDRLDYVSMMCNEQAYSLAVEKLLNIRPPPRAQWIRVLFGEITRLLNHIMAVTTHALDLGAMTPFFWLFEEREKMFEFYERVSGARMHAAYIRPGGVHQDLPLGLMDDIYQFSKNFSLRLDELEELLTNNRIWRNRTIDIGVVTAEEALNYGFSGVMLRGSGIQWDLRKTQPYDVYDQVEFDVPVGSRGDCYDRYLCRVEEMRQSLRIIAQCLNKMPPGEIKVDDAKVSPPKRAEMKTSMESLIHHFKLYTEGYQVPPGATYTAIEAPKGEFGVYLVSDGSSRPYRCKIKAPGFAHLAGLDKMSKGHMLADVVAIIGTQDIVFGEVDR
Chain of mitochondrial respiratory chain complex I (O75251 39-213): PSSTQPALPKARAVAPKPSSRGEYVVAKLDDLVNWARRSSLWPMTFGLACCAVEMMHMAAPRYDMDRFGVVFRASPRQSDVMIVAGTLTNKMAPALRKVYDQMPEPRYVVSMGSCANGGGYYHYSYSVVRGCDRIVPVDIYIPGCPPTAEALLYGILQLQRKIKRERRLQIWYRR

Take `CCCCN1CCCC[C@H]1C(=O)Nc1c(C)cccc1C` [levobupivacaine]: the affinity, expressed as Ki, was 600 µM.
